Tests used:
Conditions in all cases: route intragastric
Mus musculus [1] = experiment: Antimutagenic activity against cyclophosphamide-induced mutagenicity in Albino mouse brain assessed as RNA level per gram of tissue at 14.16 mg/kg administered intragastrically for 1 week; format: functional
Mus musculus [2] = experiment: Antimutagenic activity against cyclophosphamide-induced mutagenicity in mouse brain assessed as peroxidase activity per microgram of tissue at 14.16 mg/kg administered intragastrically for 1 week; format: functional
Mus musculus [3] = experiment: Antimutagenic activity against cyclophosphamide-induced mutagenicity in Albino mouse testes assessed as DNA level per gram of tissue at 14.16 mg/kg administered intragastrically for 1 week; format: functional, Testis
Mus musculus [4] = experiment: Antimutagenic activity against cyclophosphamide-induced mutagenicity in mouse kidney assessed as protein level per gram of tissue at 14.16 mg/kg administered intragastrically for 1 week; format: functional
Mus musculus [5] = experiment: Antimutagenic activity in Albino mouse kidney assessed as RNA level per gram of tissue at 14.16 mg/kg administered intragastrically for 1 week; format: functional
Mus musculus [6] = experiment: Antimutagenic activity against cyclophosphamide-induced mutagenicity in mouse testes assessed as protein level per gram of tissue at 14.16 mg/kg administered intragastrically for 1 week; format: functional, Testis
Mus musculus [7] = experiment: Antimutagenic activity in Albino mouse brain assessed as DNA level per gram of tissue at 14.16 mg/kg administered intragastrically for 1 week; format: functional
Mus musculus [8] = experiment: Antimutagenic activity against cyclophosphamide-induced mutagenicity in mouse brain assessed as protein level per gram of tissue at 14.16 mg/kg administered intragastrically for 1 week; format: functional
Mus musculus [9] = experiment: Antimutagenic activity against cyclophosphamide-induced mutagenicity in mouse brain assessed as cholinesterase activity per microgram of tissue at 14.16 mg/kg administered intragastrically for 1 week; format: functional
Mus musculus [10] = experiment: Antimutagenic activity against cyclophosphamide-induced mutagenicity in Albino mouse liver assessed as DNA level per gram of tissue at 14.16 mg/kg administered intragastrically for 1 week; format: functional
Mus musculus [11] = experiment: Antimutagenic activity against cyclophosphamide-induced mutagenicity in Albino mouse kidney assessed as DNA level per gram of tissue at 14.16 mg/kg administered intragastrically for 1 week; format: functional
Mus musculus [12] = experiment: Antimutagenic activity in Albino mouse brain assessed as RNA level per gram of tissue at 14.16 mg/kg administered intragastrically for 1 week; format: functional
Mus musculus [13] = experiment: Antimutagenic activity in mouse brain assessed as cholinesterase activity per microgram of tissue at 14.16 mg/kg administered intragastrically for 1 week; format: functional
Mus musculus [14] = experiment: Inhibition of cyclophosphamide-induced increase in micronuclei/polychromatic erythrocytes count in mouse at 18.38 mg/kg administered intragastrically for 1 week by micronuclei assay; format: functional; design: scale not given: the % may be the effect or the level left
Mus musculus [15] = experiment: Antimutagenic activity in Albino mouse liver assessed as DNA level per gram of tissue at 14.16 mg/kg administered intragastrically for 1 week; format: functional
Mus musculus [16] = experiment: Antimutagenic activity against cyclophosphamide-induced mutagenicity in Albino mouse liver assessed as RNA level per gram of tissue at 14.16 mg/kg administered intragastrically for 1 week; format: functional
Mus musculus [17] = experiment: Antimutagenic activity against cyclophosphamide-induced mutagenicity in Albino mouse kidney assessed as RNA level per gram of tissue at 14.16 mg/kg administered intragastrically for 1 week; format: functional
Mus musculus [18] = experiment: Antimutagenic activity in Albino mouse liver assessed as RNA level per gram of tissue at 14.16 mg/kg administered intragastrically for 1 week; format: functional
Mus musculus [19] = experiment: Antimutagenic activity in Albino mouse kidney assessed as DNA level per gram of tissue at 14.16 mg/kg administered intragastrically for 1 week; format: functional
Mus musculus [20] = experiment: Antimutagenic activity against cyclophosphamide-induced mutagenicity in Albino mouse brain assessed as DNA level per gram of tissue at 14.16 mg/kg administered intragastrically for 1 week; format: functional
Mus musculus [21] = experiment: Antimutagenic activity in mouse kidney assessed as protein level per gram of tissue at 14.16 mg/kg administered intragastrically for 1 week; format: functional
Mus musculus [22] = experiment: Antimutagenic activity against cyclophosphamide-induced mutagenicity in Albino mouse testes assessed as RNA level per gram of tissue at 14.16 mg/kg administered intragastrically for 1 week; format: functional, Testis
Mus musculus [23] = experiment: Antimutagenic activity in Albino mouse testes assessed as RNA level per gram of tissue at 14.16 mg/kg administered intragastrically for 1 week; format: functional, Testis
Mus musculus [24] = experiment: Antimutagenic activity in mouse brain assessed as protein level per gram of tissue at 14.16 mg/kg administered intragastrically for 1 week; format: functional
Mus musculus [25] = experiment: Antimutagenic activity in mouse brain assessed as peroxidase activity per microgram of tissue at 14.16 mg/kg administered intragastrically for 1 week; format: functional
Mus musculus [26] = experiment: Antimutagenic activity in mouse liver assessed as protein level per gram of tissue at 14.16 mg/kg administered intragastrically for 1 week; format: functional
Mus musculus [27] = experiment: Antimutagenic activity in Albino mouse testes assessed as DNA level per gram of tissue at 14.16 mg/kg administered intragastrically for 1 week; format: functional, Testis

COc1ccc2c(c1)c(CCNC(C)=O)c1sc(CC#N)nn12
Activity (Mus musculus [1]): 0.16 mg | Activity (Mus musculus [2]): 1.24 U/min | Activity (Mus musculus [3]): 0.28 mg | Activity (Mus musculus [4]): 4.94 g | Activity (Mus musculus [5]): 0.23 mg | Activity (Mus musculus [6]): 3.49 g | Activity (Mus musculus [7]): 0.33 mg | Activity (Mus musculus [8]): 2.71 g | Activity (Mus musculus [9]): 2.73 U | Activity (Mus musculus [10]): 0.25 mg | Activity (Mus musculus [11]): 0.35 mg | Activity (Mus musculus [12]): 0.19 mg | Activity (Mus musculus [13]): 3.3 U | Activity (Mus musculus [14]): 28% | Activity (Mus musculus [15]): 0.27 mg | Activity (Mus musculus [16]): 0.34 mg | Activity (Mus musculus [17]): 0.22 mg | Activity (Mus musculus [18]): 0.3 mg | Activity (Mus musculus [19]): 0.28 mg | Activity (Mus musculus [20]): 0.21 mg | Activity (Mus musculus [21]): 7.87 g | Activity (Mus musculus [22]): 0.19 mg | Activity (Mus musculus [23]): 0.21 mg | Activity (Mus musculus [24]): 2.98 g | Activity (Mus musculus [25]): 1.06 U/min | Activity (Mus musculus [26]): 9.95 g | Activity (Mus musculus [27]): 0.32 mg

Source: ChEMBL document CHEMBL1149819, “Synthesis and in vivo anti-mutagenic activity of novel melatonin derivatives” (2008)
